# What was measured:
# [1] = tested on: Matrix protein 2 (Influenza A virus), P06821 [V27A]; test: Inhibition of Influenza A Virus M2 proton channel V27A mutant expressed in Xenopus laevis oocytes at 100 uM after 2 mins by two-electrode patch clamp assay; assay type: cell-based; conditions: Oocyte
# [2] = tested on: Matrix protein 2 (Influenza A virus), P06821 [withheld]; test: Inhibition of Influenza A Virus M2 proton channel S31N mutant expressed in Xenopus laevis oocytes at 100 uM after 2 mins by two-electrode patch clamp assay; assay type: cell-based; conditions: Oocyte
Compound,inhibition [1],inhibition [2]
NN1CCC2(CCCCC2)CC1,< 15%,33%
NC12CC3CC(CC(C3)C1)C2,0%,35%
C1CCC2(CC1)CCNCC2,< 15%,33%
O=S(=O)(O)C12CC3CC(CC(C3)C1)C2,< 15%,33%
CC1(O)C2CC3CC(C2)CC1C3 (stereo not given),< 15%,33%
N=C(NO)C12CC3CC(CC(C3)C1)C2,< 15%,33%
NC12CCC3CC(CC(C3)C1)C2,< 15%,33%
CC(C)(C)CC(C)(C)N,< 15%,33%
C1CC2CCC1CNC2,< 15%,33%
NC1C2C3CC4C2C(O)C2C1C3C42 (stereo not given),< 15%,33%
N=C(N)NC(=N)NC12CC3CC(CC(C3)C1)C2,< 15%,33%
N=C(N)NC12CC3CC(CC(C3)C1)C2,< 15%,33%
CC(C)(C)c1ccc(CN)cc1,< 15%,33%
NOC12CC3CC(CC(C3)C1)C2,< 15%,33%
NC12CC3CC(C1)CC(CO)(C3)O2,< 15%,33%
OC1C2C3CC4C1C1C2CC3C41 (stereo not given),< 15%,33%
NC1CC2CC1C1CCCC21 (stereo not given),< 15%,33%
NC(CO)C12CC3CC(CC(C3)C1)C2 (stereo not given),4%,15%
O=C1C2CC3CC(C2)CC1C3,< 15%,33%
C1NC2CC3CC1CC(C3)C2,< 15%,33%

Compound,inhibition [1],inhibition [2]
CC12CC3(O)CC1(C)CC3(O)C2,< 15%,33%
OC1CCC(C2CC3CCC2C3)CC1O (stereo not given),< 15%,33%
NC1Cc2ccccc2C1,< 15%,33%
NC12CC3CC(C1)CC(O)(C3)C2,< 15%,33%
OC12CC3CC(CC(C3)C1)C2,< 15%,33%
NC1CCC2(CCCCC2)CC1,< 15%,33%
NC(=O)C12CC3CC(CC(C3)C1)C2,< 15%,33%
N=C(N)NCC12CC3CCC(CC(C3)C1)C2,< 15%,33%
NN1C(=O)CC2(CCCCC2)CC1=O,< 15%,33%
OC1CC2C3CCC(C3)C2C1O (stereo not given),< 15%,33%
CC1(C)C(N)C1(C)C,< 15%,33%
C1CC2CC1C1CNC21 (stereo not given),< 15%,33%
OC1C2C3CC4C2C(O)C2C1C3C42 (stereo not given),< 15%,33%
N=C(N)C12CC3CC(CC(C3)C1)C2,< 15%,33%
NC1C2C3CC4C1C1C2CC3C41 (stereo not given),< 15%,33%
O=C1CC2(CCCCC2)CC(=O)N1,< 15%,33%
NNC1CCC2(CCCCC2)CC1,< 15%,33%
NC1C2CC3CC(C2)CC1C3 (stereo not given),< 15%,33%
C1CC2CC1C1CNCC21 (stereo not given),< 15%,33%
NC12CC3CCC(CC(C3)C1)C2,< 15%,33%

# Reference: ChEMBL document CHEMBL2040799, “Exploring the Requirements for the Hydrophobic Scaffold and Polar Amine in inhibitors of M2 from Influenza A Virus” (ACS Med Chem Lett, 2011)
